Source: PMC11231610, “Fatty acid binding to the human transport proteins FABP3, FABP4, and FABP5 from a Ligand’s perspective” (The Journal of Biological Chemistry, 2024)
Values joined by “and” are separate entries in the source; they are usually repeats but may differ in a detail not shown here. Identical values can stand only once. Like-named read-outs stand apart in the source and are kept apart here. One block for each compound: values may come before it.

Experiments:
Format in all cases: binding
FABP3 = target: T1, FABP3 (Homo sapiens, UniProt P05413); experiment: CW EPR spectra and spectral simulations of spin-probed fatty acids with FABP3
T1 construct: purchased Sigma Aldrich
Description: (§1) For a more in-depth view of the binding mechanism, CW EPR spectra of 5/16-DSA with concentration series of the FABPs were measured and simulated. […] Equal concentrations of 20 μM of each spin probe (5- and 16-DSA) were mixed with FABP concentrations of 0 to 200 μM, increasing the resulting ligand/protein ratio in the samples stepwise from 1/0 to 1/10.
(§2) To analyze the spectra quantitatively, subsequent EPR spectral simulations were performed (Fig. 2, B and C). […] For a better understanding, a first interpretation of these components is given at this point. The rotational dynamics are thought to be indirectly proportional to the strength of intermolecular interactions between fatty acid and FABP. Therefore, they are indicative of the binding state of the fatty acids. Higher rotational correlation times signalize lower ligand dynamics and stronger interactions with the protein. […] This exchange broadening can only occur if radicals are located very close distance each other, colliding with each other, leading to partial overlap of spin-bearing orbitals.
(§3) The fractions (weights) Φx of the spectral components were extracted from the EPR simulations of the concentration series and were used to calculate the concentrations of all components with Eq (1). in Figure 3. This was performed for the intermediately and strongly bound components, as well as for their sum, called totally bound 5/16-DSA, to construct binding curves for all FABPs and spin probes. […] Different fit functions were applied to the curves for a better qualitative and quantitative analysis.

FABP4 = target: T2, FABP4 (Homo sapiens, UniProt P15090); experiment: CW EPR spectra and spectral simulations of spin-probed fatty acids with FABP4; conditions: 37 °C
T2 construct: purchased Sigma Aldrich
Description: as §1, §2, §3

FABP5 [1] = target: T3, FABP5 (Homo sapiens, UniProt Q01469); experiment: CW EPR spectra and spectral simulations of spin-probed fatty acids with FABP5
T3 construct: purchased Sigma Aldrich
Description: as §1, §2, §3

FABP5 [2] = target: T3, FABP5; experiment: DHA displacement of 16-DSA from FABP5 by CW EPR; conditions: FABP5/16-DSA/DHA up to 20/20/100
Excerpt: In a second addition during revision, we were curious about the question of whether our model ligands that bind with medium affinity to the FABP binding pocket will be displaced when we add a native ligand with higher affinity and whether we could detect this displacement with our CW EPR setup. The native ligand DHA was chosen for this displacement analysis since it is well-known to bind with high affinity to FABP5 ([26]). DHA was pre-dissolved in ethanol, diluted into buffer, and mixed with FABP5 and 16-DSA. […] Samples with FABP5/16-DSA/DHA ratios 20/20/0, 20/20/5, 20/20/10, 20/20/20, 20/20/50, and 20/20/100 were prepared with 5 min incubation time in between 16-DSA and DHA addition. […] We assume that the well-known high binding affinity of DHA refers to the state of strong binding within the pocket. […] Instead, a dynamic exchange of ligands seems to occur, as we consistently observe it with albumins from different species. However, this part opens the way to other future competitive binding assays via CW EPR spectroscopy, e.g., with pharmaceuticals that bind to FABPs.
CW EPR spectroscopic measurements were performed at X-band frequencies (∼9.4 GHz) with a benchtop spectrometer Magnettech MS-5000 (Freiberg Instruments GmbH, now Bruker Biospin). The samples were prepared in low-binding PCR tubes (250 μl). Protein and 5/16-DSA solutions were mixed with HEPES/NaCl buffer at pH 7.5, to obtain samples with a constant 5/16-DSA concentration of 20 μM and varying FABP concentrations of 200, 100, 50, 35, 25, 20, 15, 10 and 5 μM. After an incubation time of 20 min, the samples were transferred into glass capillaries, which were sealed with ‘Critoseal’. At first, solutions with 20 μM of 5/16-DSA were measured as references at 37 °C. The concentration series of FABP with 20 μM 5/16-DSA were measured at 37 °C, directly after preparation. Afterward, the sample capillaries were stored at 4 °C, and subsequent temperature-dependent measurements were performed. […]

[3] = 37 °C, 20 μM spin probe, EPR binding curve, read-out: KD,T,75′ (fit), apparent KD read at 75% totally bound
[4] = Fig. 2B, 20 μM 5-DSA with 100 μM FABP3
[5] = Hill fit of EPR binding curve, totally bound, 37 °C
[6] = Hill fit, totally bound (T), y = bound 5/16-DSA
[7] = read-out: KD,T,50′ (fit), apparent KD read at 50% totally bound, 37 °C, 20 μM spin probe, EPR binding curve

T3 sequence (Q01469 whole entry): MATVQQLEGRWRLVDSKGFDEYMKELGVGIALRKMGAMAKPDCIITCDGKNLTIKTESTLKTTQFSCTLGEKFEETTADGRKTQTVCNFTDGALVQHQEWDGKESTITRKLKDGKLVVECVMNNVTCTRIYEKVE
T2 sequence (P15090 whole entry): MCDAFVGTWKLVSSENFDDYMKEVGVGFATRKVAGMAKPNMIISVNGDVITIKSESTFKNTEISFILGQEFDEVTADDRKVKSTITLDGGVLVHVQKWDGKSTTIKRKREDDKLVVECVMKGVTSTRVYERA
T1 sequence (P05413 whole entry): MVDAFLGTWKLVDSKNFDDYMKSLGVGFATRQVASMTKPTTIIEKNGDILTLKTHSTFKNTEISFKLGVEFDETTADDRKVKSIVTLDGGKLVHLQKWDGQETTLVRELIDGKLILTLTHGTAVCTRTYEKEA

Kd (FABP3; 37 °C, 20 μM FABP3, 20 μM spin probe, read-out: KD,T,20μM (calculated, totally bound)): 0.82 ± 0.65 µM | Kd (FABP3; [3]): 17.4 ± 0.2 µM | Kd (FABP3; 37 °C, 50 μM FABP3, 20 μM spin probe, read-out: KD,T,50μM (calculated, totally bound)): 2.44 ± 1.87 µM | ΔGF−I,100μM (free to intermediately bound) (FABP3; 37 °C, 100 μM FABP3): -6.84 ± 0.22 kcal/mol | ΔGF−S,100μM (free to strongly bound) (FABP3; 37 °C, 100 μM FABP3): -4.4 ± 0.048 kcal/mol | ΔGF−T,100μM (free to totally bound) (FABP3; 37 °C, 100 μM FABP3): -8.08 ± 0.813 kcal/mol | ΔGI−S,100μM (intermediately to strongly bound) (FABP3; 37 °C, 100 μM FABP3): 1.27 ± 0.072 kcal/mol | Kd (FABP3; 37 °C, 100 μM FABP3, 20 μM spin probe, read-out: KD,T,100μM (calculated, totally bound)): 2.06 ± 2.68 µM | aiso, component (1) free (FABP3; 37 °C, EPR simulation): 44.1 MHz | aiso, component (2) intermediately bound (FABP3; 37 °C, EPR simulation): 42.9 MHz | aiso, component (3) strongly bound (FABP3; 37 °C, EPR simulation): 41.3 MHz | τc,iso, component (1) free (FABP3; 37 °C, EPR simulation): 0.1 ns | τc,iso, component (2) intermediately bound (FABP3; 37 °C, EPR simulation): 4.8–4.9 ns | τc,iso, component (3) strongly bound (FABP3; 37 °C, EPR simulation): 17.9–19 ns | bound molecules at complete saturation (FABP3; 37 °C, tenfold protein excess, totally bound): 100% | rotational correlation time τc, component (1) (FABP3; [4]): 0.1 ns | rotational correlation time τc, component (3) (FABP3; [4]): 17.8 ns | Hill coefficient n (FABP3; [5]): 1.898 and > 1 | Hill fit k (FABP3; Hill fit, totally bound (T), x = c(FABP3)/c(5/16-DSA)): 0.475 ± 0.019 | Hill fit Vmax (FABP3; [6]): 98.766 ± 1.7 | Kd (FABP3; [7]): 9.6 ± 0.1 µM | Kd (FABP4; 20 μM FABP4, 20 μM spin probe, read-out: KD,T,20μM (calculated, totally bound)): 20.8 ± 0.8 µM | Kd (FABP4; 20 μM spin probe, EPR binding curve, read-out: KD,T,75′ (fit), apparent KD read at 75% totally bound): 66 ± 0.7 µM | Kd (FABP4; 50 μM FABP4, 20 μM spin probe, read-out: KD,T,50μM (calculated, totally bound)): 25.3 ± 1 µM | ΔGF−I,100μM (free to intermediately bound) (FABP4; 100 μM FABP4): -6.19 ± 0.096 kcal/mol | ΔGF−S,100μM (free to strongly bound) (FABP4; 100 μM FABP4): -4.85 ± 0.024 kcal/mol | ΔGF−T,100μM (free to totally bound) (FABP4; 100 μM FABP4): -7.12 ± 0.263 kcal/mol | ΔGI−S,100μM (intermediately to strongly bound) (FABP4; 100 μM FABP4): 0.741 ± 0.048 kcal/mol | Kd (FABP4; 100 μM FABP4, 20 μM spin probe, read-out: KD,T,100μM (calculated, totally bound)): 9.53 ± 0.53 µM | aiso, component (1) free (FABP4; EPR simulation): 44.1 MHz | aiso, component (2) intermediately bound (FABP4; EPR simulation): 46.9 MHz | aiso, component (3) strongly bound (FABP4; EPR simulation): 43.0 MHz | τc,iso, component (1) free (FABP4; EPR simulation): 0.06–0.08 ns | τc,iso, component (2) intermediately bound (FABP4; EPR simulation): 4.8 ns | τc,iso, component (3) strongly bound (FABP4; EPR simulation): 17.9 ns | Hill coefficient n (FABP4; Hill fit of EPR binding curve, totally bound): > 1 | Kd (FABP4; read-out: KD,T,50′ (fit), apparent KD read at 50% totally bound, 20 μM spin probe, EPR binding curve): 31.6 ± 0.3 µM | Kd (FABP5 [1]; 37 °C, 20 μM FABP5, 20 μM spin probe, read-out: KD,T,20μM (calculated, totally bound)): 2.05 ± 0.5 µM | Kd (FABP5 [1]; [3]): 25 ± 0.3 µM | Kd (FABP5 [1]; 37 °C, 50 μM FABP5, 20 μM spin probe, read-out: KD,T,50μM (calculated, totally bound)): 5.82 ± 1.14 µM | ΔGF−I,100μM (free to intermediately bound) (FABP5 [1]; 37 °C, 100 μM FABP5): -6.14 ± 0.048 kcal/mol | ΔGF−S,100μM (free to strongly bound) (FABP5 [1]; 37 °C, 100 μM FABP5): -4.97 ± 0.024 kcal/mol | ΔGF−T,100μM (free to totally bound) (FABP5 [1]; 37 °C, 100 μM FABP5): -7.24 ± 0.19 kcal/mol | ΔGI−S,100μM (intermediately to strongly bound) (FABP5 [1]; 37 °C, 100 μM FABP5): 0.621 ± 0.024 kcal/mol | Kd (FABP5 [1]; 37 °C, 100 μM FABP5, 20 μM spin probe, read-out: KD,T,100μM (calculated, totally bound)): 7.79 ± 0.37 µM | aiso, component (1) free (FABP5 [1]; 37 °C, EPR simulation): 44.1 MHz | aiso, component (2) intermediately bound (FABP5 [1]; 37 °C, EPR simulation): 44.9–46.9 MHz | aiso, component (3) strongly bound (FABP5 [1]; 37 °C, EPR simulation): 42.3–43.7 MHz | τc,iso, component (1) free (FABP5 [1]; 37 °C, EPR simulation): 0.09–0.1 ns | τc,iso, component (2) intermediately bound (FABP5 [1]; 37 °C, EPR simulation): 4.8 ns | τc,iso, component (3) strongly bound (FABP5 [1]; 37 °C, EPR simulation): 17.9 ns | totally bound fraction (FABP5 [1]; 37 °C, high FABP5 excess): 94.8% | Hill coefficient n (FABP5 [1]; [5]): 1.109 ± 0.041 and ≈ 1 | Hill fit k (FABP5 [1]; Hill fit, totally bound (T), x = c(FABP5)/c(5/16-DSA)): 0.352 ± 0.009 | Hill fit Vmax (FABP5 [1]; [6]): 96.295 ± 0.907 | Kd (FABP5 [1]; [7]): 6.6 ± 0.1 µM
SMILES: CCCCCCCCCCCCCC1(CCCC(=O)O)OCC(C)(C)N1[O] (stereo not shown) [5-DSA, 5-DOXYL stearic acid]

bound 16-DSA with rising DHA content (FABP5 [2]): 55%
SMILES: CC/C=C\C/C=C\C/C=C\C/C=C\C/C=C\C/C=C\CCC(=O)O [DHA, Cis-4,7,10,13,16,19-Docosahexaenoic acid]
displacement of 16-DSA (FABP5 [2]): no complete displacement of 16-DSA occurred
